Reference: patent US10071103B2, “Treatments for resistant acne” (VYOME BIOSCIENCES PVT. LTD., priority 2014, dated 2018)
≈ marks a conversion by molar mass, not a printed value. One block for each molecule: values may come before it.

How the values were obtained:
P. acnes MTCC 1951 [1] = experiment: MIC by micro broth dilution (Alamar blue), clindamycin-susceptible P. acnes; type: cell-based, Propionibacterium acnes; conditions: Cutibacterium acnes, MTCC1951; Table 7; against P. acnes; read-out: MIC
Method: The plates were incubated at 37° C. for 48 h under anaerobic condition for P. acnes and 37° C. for 24 h for S. aureus The plates were read under Bio-Rad plate reader at 595 nm for optical density to generate the dose-response curves. The MIC of the test compound was recorded by addition of Alamar blue dye.
P. acnes (MTCC 3297, MTCC 1951& CCARM 9010) are cultured in Brain Heart Infusion (BHI) Broth at 37° C. for 48-72 h under anaerobic condition. The test compounds/formulations are initially diluted with suitable solvent and further diluted with BHI broth to get the required concentrations. Samples (100 μl) of different concentrations (prepared by serial dilution) are added to 96-well plate. To the wells, 100 μl of P. acnes BHI broth culture is added [culture turbidity adjusted against 0.5 McFarland standard (approx 1.5×10^8), and further diluted 100-fold with sterile BHI broth]. In addition Growth Control and Sterility Control are created using 100 μl each of P. acnes BHI broth culture and plain BHI broth, respectively.
Plates are incubated at 37° C. for 48-72 hrs under anaerobic condition. The plate is read under Bio-Rad plate reader @ 595 nm for optical density to generate the dose-response curves. The MIC of the test compound is recorded by addition of Alamar blue dye.
BHI broth and BHI agar media were prepared as per the manufacturer's instruction and autoclaved at 121° C. for 15 minutes. […] For MIC determination testing, gels are dissolved in the solvent and further diluted with BHI broth. Then, 96 wells plate are filled with 100 μl of BHI broth containing drug with different concentration to get the final concentrations of 0.06, 0.13, 0.25, 0.5, 1 and 2 μg/ml in different lanes (lane 1 to lane 6). Remaining lanes of the 96 well plate are used as growth control and sterility control. Finally, P. acnes culture suspension (approx 1.5×10^6) is added in all the wells except sterility control wells and plate is incubated at 37° C. for 48-72 h under anaerobic condition. At the end of 72 h, Alamar blue solution (20 μl) is added into the wells and incubated at 37° C. for 2 h. Plate is visualized for bacterial inhibitions and MIC values of the tested samples are determined. […]

P. acnes MTCC 1951 [2] = type: cell-based, Propionibacterium acnes; conditions: for MPC: P. acnes, 10^10 cells inoculum; for MPC/MIC: ratio against P. acnes
Method: 3 to 4 Petri plates containing 48 h P. acnes culture was suspended in sterile Phosphate buffer saline, PBS (pH 7.2) and turbidity was adjusted to optical density of 1 at 600 nm (10^9 cells/ml). 50 ml of this culture suspension was centrifuged at 4000 rpm for 40 min. The supernatant was discarded and pellet resuspended in 250 μl of sterile PBS. 50 μl of these cell suspensions (10^10 cells) was spread over the plates containing various concentrations of antibiotics (around MIC range). Plates were incubated at 37° C. for 48 h and the lowest concentration of the drug that allowed no growth was taken as its MPC.

IL-6 = experiment: P. acnes-induced IL-6 release in THP-1 cells (ELISA); type: cell-based; conditions: for Effect on P. acnes-induced IL-6 levels (in words): Example 61, besifloxacin 10, 30 μg/ml, adapalene 0.04, 0.4 μg/ml; for Expression of Cytokines IL-6 (pg/ml) Mean: THP-1 cells, Table 71
Method: (§1) Method: Preparation of Stimulant for Inflammation: P. acnes culture suspension was prepared in PBS and the cell number in the suspension was adjusted to approximately 5×10^8 CFU/ml by measuring the cell density using a Densimat. The bacterial suspension was then heat killed at 80° C. for 30 min and stored at −80° C. until further use.
(§2) Cells were seeded in a 96-well format (2×10^5 THP-1 cells per well) in media containing 10% FBS. The cells were stimulated to induce inflammatory cytokines using 3 McFarland equivalent heat-killed P. acnes. Cells in control wells were treated with PBS. One hour after induction with P. acnes, test agents were added to the induced cells at appropriate concentrations to be tested (compound 91 at 25 μg/ml). The plates were incubated at 37° C. for 24 hours. After 24 h, the plates were centrifuged to pellet the cells and the supernatants were collected. The cell culture supernatants thus obtained were analyzed for levels of cytokines (IL-1α, IL-1β, IL-6 and IL-8) by ELISA using R&D Systems kits for individual cytokines following the manufacturer's instructions.
as §1, with “Preparation” for “Method: Preparation”, “stimulant” for “Stimulant”, “inflammation:” for “Inflammation:”
(§3) Cells were seeded in a 96-well format (2×10^5 THP-1 cells per well) in media containing 10% FBS. The cells were stimulated to induce inflammatory cytokines using 3 McFarland equivalent heat-killed P. acnes. Cells in control wells were treated with PBS. One hour after induction with P. acnes, test agents were added to the induced cells at appropriate concentrations (Besifloxacin at 10 and 30 μg/ml; Adapalene at 0.04 and 0.4 μg/ml). The plates were incubated at 37° C. for 24 hours. After 24 h, the plates were centrifuged to pellet the cells and the supernatants were collected. The cell culture supernatants thus obtained were analyzed for cytokine levels (IL-6 and IL-8) by ELISA using R&D Systems kits for individual cytokines following the manufacturer's instructions.

[3] = system: P. acnes clinical isolates; experiment: MIC of P. acnes isolated from acne patients (clinical isolates);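 also: anaerobic 96-well plate assay at 37 °C over 72 h, with Alamar blue dye as read-out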;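 as to MIC: MIC in µg/mL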
Method: P. acnes were cultured in Brain Heart Infusion Agar (BHIA) at 37° C. for 48 hours under anaerobic condition. […] For bacterial inoculum, P. acnes culture turbidity was adjusted to 0.5 McFarland standard (approximately 1.5×10^8) and further diluted (100 times with sterile BHI broth). Diluted P. acnes suspension (100 μl) was added to each well except sterility control wells (column 12 of 96 well plate). Inoculated plates were incubated at 37° C. for 72 hours under anaerobic condition. After incubation, MIC was determined by adding Alamar blue dye.

IL-8 = experiment: P. acnes-induced IL-8 release in THP-1 cells (ELISA); type: cell-based; conditions: THP-1 cells, Table 71
Method: as §1, §2
as §1, with “Preparation” for “Method: Preparation”, “stimulant” for “Stimulant”, “inflammation:” for “Inflammation:”
as §3

[4] = Cutibacterium acnes, P. acnes strain V5-2, clinical isolate susceptible to clindamycin and erythromycin
[5] = Cutibacterium acnes, P. acnes strain V5-5, clinical isolate susceptible to clindamycin and erythromycin
[6] = Cutibacterium acnes, P. acnes strain V5-7, clinical isolate susceptible to clindamycin and erythromycin
[7] = Cutibacterium acnes, P. acnes strain V6-5, clinical isolate susceptible to clindamycin and erythromycin
[8] = Cutibacterium acnes, P. acnes strain V6-6, clinical isolate susceptible to clindamycin and erythromycin
[9] = Cutibacterium acnes, P. acnes strain V6-7, clinical isolate susceptible to clindamycin and erythromycin
[10] = Cutibacterium acnes, P. acnes strain V7-3, clinical isolate susceptible to clindamycin and erythromycin
[11] = Cutibacterium acnes, P. acnes strain V7-4, clinical isolate susceptible to clindamycin and erythromycin
[12] = Cutibacterium acnes, P. acnes strain V7-14, clinical isolate susceptible to clindamycin and erythromycin
[13] = Cells + P. acnes + Adapalene 0.04 μg/ml
[14] = Cells + P. acnes + Adapalene 0.4 μg/ml

Structure (SMILES): CC1Sc2c(C(=O)O)c(=O)c3cc(F)c(N4CCNCC4)cc3n21 (centres unmarked) [Ulifloxacin]
MIC (P. acnes MTCC 1951 [1]): 0.13 µg/mL (≈ 0.372 µM)
MPC (P. acnes MTCC 1951 [2]): 1.2 µg/mL
MPC/MIC (P. acnes MTCC 1951 [2]): 9.2

Structure (SMILES): N[C@@H]1CCCCN(c2c(F)cc3c(=O)c(C(=O)O)cn(C4CC4)c3c2Cl)C1 [Besifloxacin]
MIC (P. acnes MTCC 1951 [1]): 0.5 µg/mL (≈ 1.27 µM)
MPC (P. acnes MTCC 1951 [2]): 2 µg/mL
MPC/MIC (P. acnes MTCC 1951 [2]): 4
Effect on P. acnes-induced IL-6 levels (in words) (IL-6): concentration-dependent inhibitory effect
Susceptibility of P. acnes isolated from volunteers V3 and V21 (in words) [3]: susceptible
Susceptibility of clindamycin-nonresponder clinical isolates (in words) [3]: susceptible
Susceptibility of clinical isolates susceptible to clindamycin and erythromycin (in words) [3]: susceptible
MIC ([3]; Cutibacterium acnes): 0.25 µg/mL
MIC [3, 4]: 0.5 µg/mL
MIC [3, 5]: 0.5 µg/mL
MIC [3, 6]: 0.5 µg/mL
MIC [3, 7]: 0.5 µg/mL
MIC [3, 8]: 0.5 µg/mL
MIC [3, 9]: 0.5 µg/mL
MIC [3, 10]: 0.5 µg/mL
MIC [3, 11]: 0.5 µg/mL
MIC [3, 12]: 0.5 µg/mL
MIC ([3]; Cutibacterium acnes, P. acnes strain V9-6E, clinical isolate susceptible to clindamycin and erythromycin): 0.5 µg/mL
MIC ([3]; Cutibacterium acnes, P. acnes strain V13-3E, clinical isolate susceptible to clindamycin and erythromycin): 0.5 µg/mL
MIC ([3]; Cutibacterium acnes, P. acnes strain V14-2E, clinical isolate susceptible to clindamycin and erythromycin): 0.5 µg/mL
MIC ([3]; Cutibacterium acnes, P. acnes strain V17-3E, clinical isolate susceptible to clindamycin and erythromycin): 0.5 µg/mL
MIC ([3]; P. acnes strain V2-9, clinical isolate susceptible to clindamycin and erythromycin): 0.25 µg/mL
MIC ([3]; P. acnes strain V3-9, clinical isolate susceptible to clindamycin and erythromycin): 0.25 µg/mL
MIC ([3]; P. acnes strain V3-10, clinical isolate susceptible to clindamycin and erythromycin): 0.25 µg/mL
MIC ([3]; P. acnes strain V4-6, clinical isolate susceptible to clindamycin and erythromycin): 0.25 µg/mL
MIC ([3]; P. acnes strain V4-8, clinical isolate susceptible to clindamycin and erythromycin): 0.25 µg/mL
MIC ([3]; P. acnes strain V4-13, clinical isolate susceptible to clindamycin and erythromycin): 0.25 µg/mL
MIC ([3]; P. acnes strain V12-2E, clinical isolate susceptible to clindamycin and erythromycin): 0.25 µg/mL
MIC ([3]; P. acnes strain V15B-1E, clinical isolate susceptible to clindamycin and erythromycin): 0.25 µg/mL
MIC ([3]; P. acnes strain V18-4E, clinical isolate susceptible to clindamycin and erythromycin): 0.25 µg/mL
MIC ([3]; P. acnes strain V19-2E, clinical isolate susceptible to clindamycin and erythromycin): 0.25 µg/mL
MIC ([3]; P. acnes strain V20-5E, clinical isolate susceptible to clindamycin and erythromycin): 0.25 µg/mL

Structure (SMILES): COc1ccc(-c2ccc3cc(C(=O)O)ccc3c2)cc1C12CC3CC(CC(C3)C1)C2 [Adapalene, adapalene]
Expression of Cytokines IL-6 (pg/ml) Mean (IL-6; [13]): 308.82 pg/mL
Expression of Cytokines IL-6 (pg/ml) Mean (IL-6; [14]): 162.76 pg/mL
Effect on P. acnes-induced IL-6 levels (in words) (IL-6): impart individual anti-inflammatory effects
Expression of Cytokines IL-8 (pg/ml) Mean (IL-8; [13]): 2536.76 pg/mL
Expression of Cytokines IL-8 (pg/ml) Mean (IL-8; [14]): 2579.87 pg/mL

MIC ([3]; Cutibacterium acnes, P. acnes strain V2-9, clinical isolate susceptible to clindamycin and erythromycin): 0.06 µg/mL
MIC ([3]; Cutibacterium acnes, P. acnes strain V2-10, clinical isolate susceptible to clindamycin and erythromycin): 0.06 µg/mL
MIC ([3]; Cutibacterium acnes, P. acnes strain V3-9, clinical isolate susceptible to clindamycin and erythromycin): 0.06 µg/mL
MIC ([3]; Cutibacterium acnes, P. acnes strain V3-10, clinical isolate susceptible to clindamycin and erythromycin): 0.06 µg/mL
MIC ([3]; Cutibacterium acnes, P. acnes strain V4-6, clinical isolate susceptible to clindamycin and erythromycin): 0.06 µg/mL
MIC ([3]; Cutibacterium acnes, P. acnes strain V4-8, clinical isolate susceptible to clindamycin and erythromycin): 0.06 µg/mL
MIC ([3]; Cutibacterium acnes, P. acnes strain V4-13, clinical isolate susceptible to clindamycin and erythromycin): 0.06 µg/mL
MIC [3, 4]: 0.06 µg/mL
MIC [3, 5]: 0.06 µg/mL
MIC [3, 6]: 0.06 µg/mL
MIC [3, 7]: 0.06 µg/mL
MIC [3, 8]: 0.06 µg/mL
MIC [3, 9]: 0.06 µg/mL
MIC [3, 10]: 0.06 µg/mL
MIC [3, 11]: 0.06 µg/mL
MIC [3, 12]: 0.06 µg/mL
Structure (SMILES): CN(C)c1ccc(O)c2c1C[C@H]1C[C@H]3[C@H](N(C)C)C(O)=C(C(N)=O)C(=O)[C@@]3(O)C(O)=C1C2=O [Minocycline, minocycline]
